# US8329688B2, “Trans-4-[[(5S)-5-[[[3,5-bis(trifluoromethyl)phenyl]methyl](2-methyl-2H-tetrazol-5-yl)amino]-2,3,4,5-tetrahydro-7,9-dimethyl-1H-1-benzazepin-1-yl]methyl]-cyclohexanecarboxylic acid” (Eli Lilly and Company, priority 2009, dated 2012)
# Assay: IV and PO pharmacokinetics of CETP inhibitor compounds in male Sprague Dawley rats
# Format: in vivo
# Conditions: rat, 3 mg/kg PO, 1 mg/kg IV
# Protocol: This following is to determine the pharmacokinetic parameters, including oral bioavailability, following a single 1 mg/kg intravenous bolus or a 3 mg/kg oral dose administration of the compound to male Sprague Dawley rats (n=4) in a crossover study design. The intravenous vehicle is 20% solutol microemulsion/80% deionized water. The oral vehicle is povidone USP 10%/SLS 0.5%/QS deionized water. In the intravenous arm, blood samples are collected at 0.08, 0.25, 0.5, 1, 2, 5, 8, 12, and 24 hours post-dose. In the oral arm, blood samples are collected at 0, 0.25, 0.5, 1, 2, 5, 8, 12, and 24 hours post-dose. Plasma is obtained by centrifugation, placed on ice, and frozen until samples are shipped on dry ice to Bioanalytical Systems, Inc. (BASi; West Lafayette, Ind.) for bioanalytical analysis. Concentrations of BCCA are determined by LC/MS/MS and pharmacokinetic parameters are calculated using a validated software program (Watson, Version 7.1). […]
compound,measurement,value
"Cc1cc2c(c(C)c1C(F)(F)F)N(CC1CCC(CC(=O)O)CC1)CCC[C@@H]2N(Cc1cc(C(F)(F)F)cc(C(F)(F)F)c1)c1nnn(C)n1 (stereo partly drawn) [compound 15, (S)-(4-{5-[(3,5-Bis-trifluoromethyl-benzyl)-(2-methyl-2H-tetrazol-5-yl)-amino]-7,9-dimethyl-8-trifluoromethyl-2,3,4,5-tetrahydro-benzo[b]azepin-1-ylmethyl}-cyclohexyl)-acetic acid]",F % (AUC Extrap.) ± sd,8 ± 3%
